Source: patent US20250333398A1, “MONOARYL AND HETARYL SUBSTITUTED INDAZOLES AND BENZIMIDAZOLES AS STING ANTAGONISTS AND THE USE THEREOF AS MEDICAMENT” (Boehringer Ingelheim International GmbH, priority 2024, published 2025)

Assays:
[1] = target: T1, human STING WT (R232); test: Human STING HTRF binding assay (competitive, Cisbio 64BDSTGPEG); settings: 6His tagged human STING WT R232, competition with STING ligand-d2
T1 construct: purchased Cisbio 64BDSTGPEG
Experimental: Binders to human STING WT (R232) were identified using a competitive HTRF assay format (Cisbio 64BDSTGPEG), which uses d2-labeled STING ligand, a 6His tagged human STING protein, and an anti 6His Cryptate-labeled antibody. Compounds compete with the STING ligand-d2 and thereby prevents FRET from occurring, which can be measured by an EnVision™ reader (PerkinElmer).
Assay method: Compounds were delivered as 10 mM DMSO solution, serially diluted by an Agilent Bravo Workstation and transferred to the 384 well assay plate (Perkin Elmer #6005359) using a Cybiwell dispenser. Typically, 8 concentrations were used with the highest concentration at 10 μM or 1 μM in the final assay volume followed by ^˜1:5 dilution steps. DMSO concentration was set to 1% in the final assay volume. The 384 well assay plate contained 20 test compounds and DMSO in column 23 and 24. A cGAMP standard dilution row was prepared according to the manufacturer and transferred to each assay plate. After transfer of compound solution or dilution buffer for negative (high) and positive (low) controls, 5 μl of the human STING protein (cyclic binding domain (residues 138-379) of the WT R232 human version, fused to a 6 His tag at the Nter part; 1:50 dilution in detection buffer) were dispensed to all wells except of the positive control, which received detection buffer only. Plates were the centrifuged for 20 sec at 1000 rpm. After that, 10 μl of Anti-6His-Cryptate antibody/Sting ligand-d2 mix was added to all wells using a Multidrop combi dispenser, followed by another 20 sec/1000 rpm centrifugation step. After an incubation of the plates for 180 min at room temperature, […] at […] (HTRF ratio) was measured using an Envison Reader (PerkinElmer)
Data evaluation and calculation: For data evaluation and calculation, HTRF ratios were calibrated using the cGAMP standard curve. After that, the measurement of the low control was set as 0% control and the measurement of the high control was set as 100% control. The IC50 values were calculated using the standard 4 parameter logistic regression formula. Calculation: [y=(a−d)/(1+(x/c)^b)+d], a=low value, d=high value; x=conc M; c=IC50 M; b=slope;

[2] = system: T2, wild-type (GRR) human STING cGAMP binding domain (residues 155-341); test: Differential Scanning Fluorimetry (DSF), stability of STING protein against thermal denaturation; settings: 100 uM compound, 3 uM target protein
T2 construct: His-TEV-hSTING (WT); TEV protease cleavage site (N); made in house; host or cells: E. coli BL21 DE3
Experimental: Dye fluorescence is quenched in aqueous environment and increases upon association of the dye with the hydrophobic parts of the unfolding protein. […] The inflection point of the curve represents the “melting” temperature of the protein (Tm) which is calculated numerically using the Boltzmann equation.
Method: The thermal stability of the STING protein was measured using a specific expression construct of the cGAMP binding domain of wild-type (GRR) human STING comprising residues 155-341 and a N-terminal 8x His-tag in assay buffer containing 20 mM Tris, 150 mM NaCl at pH7.5.
The assay uses Hard-Shell®PCR Plates 384-Well CLR/WHT (Catalog #HSP3805, BIO-RAD), Microseal®‘B’ Adhesive Seals for PCR Plates (Catalog #MSB-1001, BIO-RAD) and was run on a CFX384 Real-Time System (Bio-Rad).
A DMSO stock solution of SYPRO orange (SIGMA S5692-500UL) was prepared.
Compound stock solutions (10 mM in DMSO) were diluted 1:2 in DMSO to an intermediate compound concentration of 5 mM and then further diluted 1:40 in assay buffer resulting in a compound concentration of 125 μM and 2.5% DMSO.
Fluorescent dye stock solution (5000×SYPRO Orange) was then mixed with target protein and buffer to a concentration of 15 uM Protein and 25×SYPRO Orange. 2 ul of this protein-dye-mixture was added to 8 ul compound solution. Final volume was 10 uL. 3-6 well positions were used as negative control (protein with 2% DMSO). The plates were prepared for duplicate measurement and centrifuged for 2 min at 1000 g. In the measurement, 160 cycles of 0.5° C. were used (temperature ramp 15 s/cycle, 15° C. to 95° C.).
Final Assay concentrations for compound characterization were as follows:
100 uM compound, 3 uM target protein, 5×SYPRO Orange, 2% DMSO in 10 ul. All dispensing steps were performed using a HamiltonStar pipetting robot (Hamilton).
Dissociation curves were processed in Bio-Rad CFX Manager. Peak type was set to “negative”.
Compound codes for screen were assigned in the plate layout.
Two replicates of TM measurements were averaged, and the standard deviation was calculated. In cases of SD>1.5° C. the measurement was repeated.
The melting point (Tm) obtained for STING protein alone was subtracted from T obtained for protein incubated with ligand to generate ΔTm values.
Protein production and purification: The protein used for the biophysical experiments was a recombinant human STING protein comprising its cytosolic ectodomain. A codon optimized DNA sequence (for expression in Escherichia coli) encoding amino acid residues 155 to 341 (Swiss Prot Q86WV6) of human STING (WT) was synthesized by GeneArt (Regensburg, Germany) and inserted into a pET17b E. coli expression vector. The protein construct encodes an N-terminal 8× His-tag followed by tobacco etch virus protease (TEV) cleavage site and the above STING gene sequence. The resulting protein sequence for the used STING variant is listed below:
For expression of recombinant human STING above construct was transformed into E. coli BL21 DE3 strain and grown in shake flasks in LB-medium at 37° C. Expression was induced by addition of isopropyl β-D-1-thiogalactopyranoside to a final concentration of 1 mM and cultures shaken overnight. Cell pellets were centrifuged and stored at −70° C. until further use. Protein was purified by cell thawing in lysis buffer (20 mM TRIS-HCl, pH 8, 300 mM NaCl, 2 mM mercaptoethanol, 20 mM imidazole, Complete Protease Inhibitor (Roche) and DNase (Roche)), followed by metal affinity purification using Ni-NTA resins and elution buffer consisting of 20 mM TRIS-HCl, pH 8, 300 mM NaCl, 2 mM mercaptoethanol, 300 mM imidazole and size exclusion chromatography in running buffer (20 mM TRIS-HCl, pH 8, 100 mM NaCl, 2 mM DTT). The peak fraction was collected and concentrated to 2.5 mg/mL.

SMILES	IC50 [1]	DSF ΔTm (K) [2]
CC[P@@](C)(=O)c1ccc(-c2nc(-c3cccc4nn(-c5cn(C6CC6)nc5OC)cc34)c(C3CC3)n2C)c(OC(F)(F)F)c1 [Example 13, 4-(5-cyclopropyl-2-{4-[(R)-ethyl(methyl)phosphoryl]-2-(trifluoromethoxy)phenyl}-1-methyl-1H-imidazol-4-yl)-2-(1-cyclopropyl-3-methoxy-1H-pyrazol-4-yl)-2H-indazole]	18.9 nM	27 K
CC[P@](C)(=O)c1ccc(-c2nc(-c3cccc4nn(-c5cc(C6CC6)n(C)n5)cc34)c(C3CC3)n2C)c(OC(F)(F)F)c1 [Example 19, 2-(5-cyclopropyl-1-methyl-1H-pyrazol-3-yl)-4-(5-cyclopropyl-2-{4-[(S)-ethyl(methyl)phosphoryl]-2-(trifluoromethoxy)phenyl}-1-methyl-1H-imidazol-4-yl)-2H-indazole]	18 nM	28 K
Cn1nc(-n2cc3c(-c4nc(-c5ccc(P(C)(C)=O)cc5OC(F)(F)F)n(C)c4C4CC4)cccc3n2)cc1C(F)F [Example 2, 4-{5-cyclopropyl-2-[4-(dimethylphosphoryl)-2-(trifluoromethoxy)phenyl]-1-methyl-1H-imidazol-4-yl}-2-[5-(difluoromethyl)-1-methyl-1H-pyrazol-3-yl]-2H-indazole]	25.4 nM	30 K
COCc1cc(C(N)=O)ccc1-c1nc(-c2cccc3nn(-c4cn(C5CC5)nc4OC)cc23)c(C2CC2)n1C [Example 12, 4-{5-cyclopropyl-4-[2-(1-cyclopropyl-3-methoxy-1H-pyrazol-4-yl)-2H-indazol-4-yl]-1-methyl-1H-imidazol-2-yl}-3-(methoxymethyl)benzamide]	9.6 nM	25 K
Cn1nc(-n2cc3c(-c4nc(-c5ccc(P(C)(C)=O)cc5OC(F)(F)F)n(C)c4C4CC4)cccc3n2)cc1C(F)(F)F [Example 20, 4-{5-cyclopropyl-2-[4-(dimethylphosphoryl)-2-(trifluoromethoxy)phenyl]-1-methyl-1H-imidazol-4-yl}-2-[1-methyl-5-(trifluoromethyl)-1H-pyrazol-3-yl]-2H-indazole]	49.1 nM	30 K
CC[P@](C)(=O)c1ccc(-c2nc(-c3cccc4nn(-c5cn(C6CC6)nc5OC)cc34)c(C3CC3)n2C)c(OC(F)(F)F)c1 [Example 14, 4-(5-cyclopropyl-2-{4-[(S)-ethyl(methyl)phosphoryl]-2-(trifluoromethoxy)phenyl}-1-methyl-1H-imidazol-4-yl)-2-(1-cyclopropyl-3-methoxy-1H-pyrazol-4-yl)-2H-indazole]	6.49 nM	30 K
CC[P@](C)(=O)c1ccc(-c2nc(-c3cccc4[nH]c(-c5cc(C(F)(F)F)n(C)n5)nc34)c(C3CC3)n2C)c(OC(F)(F)F)c1 [Example 18, 4-(5-cyclopropyl-2-{4-[(S)-ethyl(methyl)phosphoryl]-2-(trifluoromethoxy)phenyl}-1-methyl-1H-imidazol-4-yl)-2-[1-methyl-5-(trifluoromethyl)-1H-pyrazol-3-yl]-1H-1,3-benzodiazole]	26.5 nM	34 K
CCP(=O)(CC)c1ccc(-c2nc(-c3cccc4nn(-c5cc(C(F)(F)F)n(C)n5)cc34)c(C3CC3)n2C)c(OC(F)(F)F)c1 [Example 17, 4-{5-cyclopropyl-2-[4-(diethylphosphoryl)-2-(trifluoromethoxy)phenyl]-1-methyl-1H-imidazol-4-yl}-2-[1-methyl-5-(trifluoromethyl)-1H-pyrazol-3-yl]-2H-indazole]	48.1 nM	29 K
COc1nn(C2CC2)cc1-n1cc2c(-c3nc(-c4ccc(C(N)=O)cc4OCC(F)F)n(C)c3C3CC3)cccc2n1 [Example 6, 4-{5-cyclopropyl-4-[2-(1-cyclopropyl-3-methoxy-1H-pyrazol-4-yl)-2H-indazol-4-yl]-1-methyl-1H-imidazol-2-yl}-3-(2,2-difluoroethoxy)benzamide]	16 nM	28 K
COc1nn(CC(C)(C)O)cc1-n1cc2c(-c3nc(-c4ccc(C(N)=O)cc4OC(F)(F)F)n(C)c3C3CC3)cccc2n1 [Example 11, 4-(5-cyclopropyl-4-{2-[1-(2-hydroxy-2-methylpropyl)-3-methoxy-1H-pyrazol-4-yl]-2H-indazol-4-yl}-1-methyl-1H-imidazol-2-yl)-3-(trifluoromethoxy)benzamide]	42.3 nM	26 K
CC[P@](C)(=O)c1ccc(-c2nc(-c3cccc4nn(-c5cc(C(F)F)n(C)n5)cc34)c(C3CC3)n2C)c(OC(F)(F)F)c1 [Example 7, 4-(5-cyclopropyl-2-{4-[(S)-ethyl(methyl)phosphoryl]-2-(trifluoromethoxy)phenyl}-1-methyl-1H-imidazol-4-yl)-2-[5-(difluoromethyl)-1-methyl-1H-pyrazol-3-yl]-2H-indazole]	19.7 nM	30 K
CCOc1nn(C)cc1-n1cc2c(-c3nc(-c4ccc(C(N)=O)cc4OC(F)(F)F)n(C)c3C3CC3)cccc2n1 [Example 4, 4-{5-cyclopropyl-4-[2-(3-ethoxy-1-methyl-1H-pyrazol-4-yl)-2H-indazol-4-yl]-1-methyl-1H-imidazol-2-yl}-3-(trifluoromethoxy)benzamide]	40.9 nM	30 K
CC[P@](C)(=O)c1ccc(-c2nc(-c3cccc4nn(-c5cc(C(F)(F)F)n(C)n5)cc34)c(C3CC3)n2C)c(OC(F)(F)F)c1 [Example 10, 4-(5-cyclopropyl-2-{4-[(S)-ethyl(methyl)phosphoryl]-2-(trifluoromethoxy)phenyl}-1-methyl-1H-imidazol-4-yl)-2-[1-methyl-5-(trifluoromethyl)-1H-pyrazol-3-yl]-2H-indazole]	31.9 nM	30 K
